Tested on: burn eschar (deep thermal burn)
Test: In vivo eschar debridement test in swine model (radiant-heat deep thermal burn, 4-hour application, visual assessment score)
Design: species or system young domestic pig (Landrace×Large Whites juvenile swine)
From the text: This study assessed the eschar-debriding activity of the debriding composition in vivo using an animal model of young domestic pig (Landrace×Large Whites juvenile swine) 22 Kg±2 Kg, bearing deep thermal burn. […] In order to create test conditions burns were inflicted in fully anesthetized animals, in a dorsal test area, by a radiant heat device creating wounds of about 4.5×4.5 cm^2. The treatment consisted of a 4-hour application of the debriding composition following by cleansing of the wound. Visual evaluation of the wound and extent of debridement is carried out by photographical documentation of the burn was performed before and after the debriding treatment. The results were expressed using debridement visual assessment scoring (VAS) scale of 1 to 5 as follows:
The model was a radiant-heat thermal burn in an anesthetized young domestic pig. In order to create test conditions which are in accordance with the therapeutic use of the test article, deep dermal and full thickness burns were inflicted in all animals by applying a radiant heat device to the back to cover an area of approximately 3% TBSA (4.5×4.5 cm) for each burn. A gross evaluation of the debriding activity of the test article (the amount of eschar removed) was assessed and photographically documented. […]

O=[N+]([O-])[O-].[Ag+] [AgNO3]
debridement by semi solid cake of debriding agent reconstituted with hydrating gel plus antiseptic (AgNO3 (0.5%), FIG. 1): performs debridement
difference in morphology of debrided burns between areas treated with debriding mixture comprising the antiseptic (FIG. 1, areas 10-12 (Silverol™) versus 14-15 (AgNO3), after cleaning dissolved eschar): No significant difference
